# From PubChem BioAssay AID179 (DTP/NCI, 2004)
# Calls of active or inactive are those of the source.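 The calls were made as follows: active = compounds giving half or more protection of infected cells from virus-caused growth loss, again on retest; inactive = the rest.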
# Test system: CEM cells HIV-1 protection, formazan growth assay
# Assay: NCI AIDS Antiviral Assay
# Conditions: for IC50: measured here: growth of uninfected CEM cells
# Summary of the method: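 Soluble formazan readout of cell growth; CEM cells ± HIV-1; 5 drug concs. ≥50% protection → retest; ≥50% again = moderately active; reproducible 100% = confirmed active.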
Structure (SMILES),EC50 [µM],IC50 [µM],outcome
CC12c3ccccc3C(C)(c3c1ccc1ccccc31)C1C(=O)OC(=O)C12 (centres undefined),> 38.9,26.9,
COc1ccccc1N1CCN(CCc2c[nH]c3cc4c(cc23)OCO4)CC1,> 132,7.41,
Cc1cc(S(=O)(=O)/N=C(/NN)Nc2ccc(Cl)cc2)c(S)cc1Cl,> 200,10,
Cc1ccc(N(CC(=O)O)S(=O)(=O)c2ccccc2)cc1,,,inactive
Clc1ccc(C2c3ccccc3-c3nc4ccccc4n32)cc1 (centres undefined),> 200,> 200,
CCOc1ccc(NC(=S)NC=C(C(N)=O)C(N)=O)cc1,> 200,> 200,
CC1(c2ccccc2)CCN(C2CC2)CO1 (centres undefined),> 200,23.4,
CC1CCC2(C)C(CC=C(C=O)C2(O)C=O)C12CO2 (centres undefined),,,inactive
CCCC(Sc1ccccc1)P(=O)(c1ccccc1)c1ccccc1 (centres undefined),,,inactive
Cc1[nH]c2ccccc2c1C1=CC(=O)N(c2ccccc2)C1=O,> 200,8.71,
Cc1ccc(NC(=O)COC(=O)c2cccc3c(=O)c4ccccc4[nH]c23)cc1,,,inactive
CC1(C)C2CCC1(CS(=O)(=O)O)C(=O)C2 (centres undefined),> 200,> 200,
COc1cc2c(c3oc4c(c(=O)c13)CCCC4)CCC(C)(C)O2,> 56.2,23.4,
CNC(=O)C(C)C1C(=O)/C(=C(O)/C=C\C(C)=C\C(C)C2OC3(C)OC(C=CC34CO4)C2C)C(=O)N1C1CCC(O)C(C)O1 (centres undefined),> 31.6,> 31.6,
CCOC(=O)C(=CN1C/C(=C/C(C)=C/c2ccccc2)SC1=S)C(=O)OCC,> 100,18.2,
O=c1[nH]c(=O)n(C2OC(CO)C(O)C2O)cc1OCCc1ccccc1 (centres undefined),> 200,> 200,
Cn1c(=O)cc(N2CCCC2)[nH]c1=O,> 200,> 200,
COc1ccc(-c2coc3cc(OC)c(OC)c(OC)c3c2=O)cc1,> 200,> 200,
CCCCN(CCCC)C(=O)C(=O)C(C(=O)C(=O)OC)c1nc2ccccc2o1 (centres undefined),> 33.9,> 33.9,
C=CCCCC12CCCc3cccc(c31)NC2=S (centres undefined),> 200,14.1,
NC(=O)CCN(CCC(N)=O)CCC(N)=O,> 200,> 200,
CC(=O)NNc1nc(C)c(C(=O)NNC(=O)C(=O)Nc2c(Cl)cc([N+](=O)[O-])cc2Cl)s1,> 74.1,> 74.1,

Structure (SMILES),EC50 [µM],IC50 [µM],outcome
OC(C/C=N/N=C/CC(O)(C(F)(F)Cl)C(F)(F)Cl)(C(F)(F)Cl)C(F)(F)Cl,> 200,89.1,
C[C@H]1[C@H](C)Oc2c3c(c4c(CO)cc(=O)oc4c2[C@H]1O)OC(C)(C)C=C3,> 200,> 200,
CN1c2ccccc2C(=O)N2C(=O)CCC21C (centres undefined),> 200,> 200,
COc1ccc(/C=C/C(=O)c2c(-c3ccccc3)nn(C)c(=O)c2N2CCOCC2)cc1,> 44.7,> 44.7,
Cc1c(NC(=O)C(C)(C)Br)c(=O)oc2c(C)c3occc(=O)c3cc12,> 16.6,> 16.6,
COC(=O)/C=C\C(C#N)(C#N)N=Cc1ccc(C)s1,> 2,0.575,
C=C[C@@H]1c2ccccc2C=C[C@]12C=CC(=O)CC2,> 57.5,21.9,
O=C(CSc1nnc(CSc2ccc(Cl)cc2)n1-c1ccccc1)NC(=O)Nc1ccccc1,> 182,115,
CCCCCCCCCCCCCC(=O)OC1C(O)C(CO)OC(OC)C1NC(=O)N(CCCl)N=O (centres undefined),> 34.7,> 34.7,
CC(=O)OCCN1CCOC(O)(c2cccc(C(F)(F)F)c2)C1 (centres undefined),> 200,117,
CNc1nc(SC)n(C)c(=O)c1N=O,,,inactive
CC(C)C1OC23CCCCC2C(C#N)(C#N)C1(C#N)C(=N)O3 (centres undefined),> 200,5.89,
CCCc1cc(=O)oc2c3c(c4c(c12)OC(C)(C)CC4)O[C@H](C)C(C)C3O (some centres undefined),> 200,25.1,
O=S1c2ccccc2NC(c2ccc3ccccc3c2)CC1c1ccccc1 (centres undefined),> 7.08,> 7.08,
O=C1/C(=C\c2cccc(Oc3ccccc3)c2)S(=O)(=O)C(c2ccccc2)N1c1cccc([N+](=O)[O-])c1 (centres undefined),> 200,9.55,
c1ccc(CSSCc2ccccc2)cc1,,,inactive
CN1CCC(c2ccccc2)(c2ccccc2)C(O)C1 (centres undefined),,,inactive
O=c1oc2ccccc2c(O)c1C(c1ccccc1)c1c(O)c2ccccc2oc1=O,> 200,33.1,
COC(=O)C1C(=O)N(C)C(=O)N2CCCC12 (centres undefined),> 200,> 200,
CCCCCCCCCC=C(c1cc(Br)cc(C(=O)O)c1OC)c1cc(Br)cc(C(=O)O)c1OC,> 1200,75.9,
CC1CCCN2C(=O)CN(C3CCCCC3)CC(=O)N12 (centres undefined),> 200,> 200,
CN(CCSCC(N)C(=O)O)CCSCC(N)C(=O)O (centres undefined),> 87.1,> 87.1,

Structure (SMILES),EC50 [µM],IC50 [µM],outcome
C=CCNc1nc2c(s1)CCc1cc(OC)c(OC)cc1-2,> 24,> 24,
Cc1oc2c(C)c3oc(=O)cc(C)c3cc2c1CCl,> 20,2.95,
C=C(C(=C)N1N=NC2C3CCC(C3)C21)N1N=NC2C3CCC(C3)C21 (centres undefined),> 2.34,> 2.34,
CCOP(=O)(OCC)O/N=C/c1cccc(C(F)(F)F)c1,> 204,> 204,
CCOC(=O)c1ccc(N=C2Sc3nc4ccccc4n3C2=Nc2ccc(C(=O)OCC)cc2)cc1,> 50.1,> 50.1,
Cn1c([C@H](C#N)C(=O)c2cc(O)ccc2[N+](=O)[O-])nc2ccccc21,> 200,> 200,
Cc1ccccc1NC(=O)/C(=N\NC(N)=S)C(C#N)c1ccccc1 (centres undefined),> 186,> 186,
O=C1C=CC2O[C@H](c3ccccc3)[C@H](O)C2O1 (some centres undefined),> 1070,5.37,
O=C(NCc1ccccc1)c1n[nH][nH]c1=O,> 200,> 200,
COC(=O)C1Cc2c(OC)ccc(OC)c2CC(C(=O)OC)C1=O (centres undefined),> 200,182,
Nc1nnnc2nc[nH]c12,> 20,0.537,
COC(=O)NN/C=C(\C=Nc1ccccc1)[N+](=O)[O-],> 97.7,87.1,
CCCCN(CCCC)C(=O)C(=O)C(C)C(=O)CC (centres undefined),,,inactive
CC1=C(c2cc(C(=O)Nc3cccc(Cl)c3)nc(NC#N)n2)Sc2ccccc2N1,,,inactive
O=C1c2sc(-c3ccc(Cl)cc3)cc2-n2cccc21,> 151,> 151,
C=CC1(O)CCCC=C1COCc1ccccc1 (centres undefined),> 200,33.1,
O=C(O)COc1c2occc2cc2ccc(=O)oc12,> 347,> 347,
N=C(N)C1CN(CCc2c[nH]c3ccccc23)C(=O)NC1=O (centres undefined),> 200,> 200,
N/N=C(/Cc1nc2ccc(C(=O)c3ccccc3)cc2[nH]c1=O)C(=O)Nc1ccc([N+](=O)[O-])cc1[N+](=O)[O-],> 50.1,> 50.1,
Cc1cc(N(C)c2ccccc2)nc(N(C)c2ccccc2)n1,> 200,60.3,
CSc1nc(C)cc(Nc2ccc(O)c(CN3CCCCC3)c2)n1,> 155,64.6,
c1ccc(N=C2c3ccccc3C3=NCCCN32)cc1,> 100,> 100,

Structure (SMILES),EC50 [µM],IC50 [µM],outcome
O=C(ON=c1c2ccccc2ccc2ccccc12)c1ccccc1,> 200,33.9,
O=C(CSc1nnc(Cc2ccccc2)o1)Nc1ccc(Cl)cc1Cl,> 66.1,> 66.1,
C=CCCCCCCCCCOC1C=CC(OC(C)=O)C(COC(C)=O)O1 (centres undefined),> 200,63.1,
O/N=C1\CCCCC1C(NO)c1ccccc1 (centres undefined),> 398,191,
COC1/C=C\OC2(C)Oc3c(C)c(O)c4c(O)c(c(/C=N\OCCCc5ccccc5)c(O)c4c3C2=O)NC(=O)/C(C)=C\C=C/C(C)C(O)C(C)C(O)C(C)C(OC(C)=O)C1C (centres undefined),> 200,6.61,
COC(=O)c1c2c(cc3c1CC1(C3)Cc3cc4c(c(C(=O)OC)c3C1)CCCC4)CCCC2,> 200,> 200,
COc1cccc(C2c3cc4c(cc3OC(NNS(=O)(=O)c3ccc(C)cc3)C2C)OCO4)c1OC (centres undefined),> 200,1.86,
CCOC(=O)c1c(-c2ccc(Cl)cc2)c(C#N)c(=S)n(C2OC(COC(C)=O)C(OC(C)=O)C(OC(C)=O)C2OC(C)=O)c1-c1ccccc1 (centres undefined),> 200,77.6,
COc1cc([C@@H]2c3cc4c(c(O)c3C[C@H]3COC(=O)[C@@H]32)OCO4)cc(OC)c1O,> 3.24,0.00174,
CC(c1ccc2c(c1)CCC1C2CC2OC23CC=CC(=O)[C@]13C)C1C[C@]2(C)O[C@]2(C)[C@H](O)O1 (some centres undefined),> 200,45.7,
COc1cc(C(=O)[O][Sn]([c]2ccccc2)([c]2ccccc2)[c]2ccccc2)cc(OC)c1OC,> 200,0.0631,
COc1ccc(COCC(Cn2ccnc2)OCc2ccc(C(=O)O)cc2)cc1 (centres undefined),> 631,589,
COc1cccc2c1C(=O)c1c(O)c3c(c(O)c1C2=O)C[C@@](O)(C(=O)CO)C[C@@H]3OC1CC(N)C(O)C(C)O1 (some centres undefined),> 2.51,,
CS(=O)(=O)Sc1ccc(Cl)cc1,> 132,9.33,
CC1=C(C(=O)Nc2ccccc2C)C(c2ccccc2C)C(C(=O)Nc2ccccc2C)=C(C)N1,> 15.5,> 15.5,
NC(N)=N/N=C(\c1nc2ccc([N+](=O)[O-])cc2[nH]c1=O)C(O)c1ccc([N+](=O)[O-])cc1 (centres undefined),> 158,> 158,
CC(C)(C)[Si](C)(C)OCCC1CC2(S(=O)(=O)C3=CC=C=C=C3)ON1CC2S(=O)(=O)c1ccccc1 (centres undefined),> 35.5,> 35.5,
CC=C=C(C)CN,> 447,> 447,
O=C1c2cscc2C(=O)c2c(Cl)sc(Cl)c21,> 0.2,> 0.2,
Cc1cccc(N=Nc2c(C)nn(C(=O)c3ccccc3Cl)c2C)c1,,,inactive
CCNC(=S)NNC(=O)c1ccccc1Nc1ccccc1C(=O)NNC(=S)NCC,,112,inactive
O=[N+]([O-])c1cccc(C2=NOC3CCCC23)c1 (centres undefined),,,inactive
